Assay results published in patent US12522594B2, “2-heteroaryl-3-oxo-2,3-dihydropyridazine-4-carboxamides for the treatment of cancer” (Deutsches Krebsforschungszentrum, priority 2017, dated 2026).
pIC50: −log10 of the molar value.

Experiments:
Format in all cases: cell-based
[1] = target: T1, AHR (Homo sapiens, UniProt P35869); assay: In vitro assay 3: AHR-regulated CYP1A1 expression in human cell line (U937, qPCR, KA stimulation); conditions: U937 cells, 200 uM KA, 6 hours, CYP1A1 expression by qPCR; read-out: Assay 3: Hum CYP1A1 Antagonism IC50
T1 sequence (P35869 11-848): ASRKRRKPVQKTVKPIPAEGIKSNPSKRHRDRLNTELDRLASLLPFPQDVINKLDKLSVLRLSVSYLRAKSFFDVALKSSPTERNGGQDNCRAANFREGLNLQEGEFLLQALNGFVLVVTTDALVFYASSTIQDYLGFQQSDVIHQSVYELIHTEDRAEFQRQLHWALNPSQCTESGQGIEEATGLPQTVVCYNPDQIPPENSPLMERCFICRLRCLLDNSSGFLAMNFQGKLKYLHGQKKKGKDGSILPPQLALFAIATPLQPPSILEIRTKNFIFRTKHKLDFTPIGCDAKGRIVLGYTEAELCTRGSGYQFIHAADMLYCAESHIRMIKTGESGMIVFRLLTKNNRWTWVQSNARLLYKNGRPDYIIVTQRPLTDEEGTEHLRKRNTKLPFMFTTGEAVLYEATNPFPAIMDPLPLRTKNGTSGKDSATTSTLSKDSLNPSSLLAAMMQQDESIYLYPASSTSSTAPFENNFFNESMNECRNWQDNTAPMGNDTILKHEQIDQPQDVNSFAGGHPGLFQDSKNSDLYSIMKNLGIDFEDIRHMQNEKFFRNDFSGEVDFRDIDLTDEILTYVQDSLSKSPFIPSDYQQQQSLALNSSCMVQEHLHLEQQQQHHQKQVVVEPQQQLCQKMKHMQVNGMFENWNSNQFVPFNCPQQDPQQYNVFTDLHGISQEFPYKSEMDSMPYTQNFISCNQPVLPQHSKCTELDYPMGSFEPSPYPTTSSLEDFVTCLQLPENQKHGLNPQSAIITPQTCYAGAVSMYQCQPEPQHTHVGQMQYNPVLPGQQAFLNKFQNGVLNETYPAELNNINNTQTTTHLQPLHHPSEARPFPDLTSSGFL
How it was run: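 U937 human monocytic cells were stimulated with 200 uM KA for 6 h, with or without compound at eight concentrations from 1 nM to 3 uM, in duplicate. CYP1A1 mRNA was quantified by Taqman qPCR as fold expression normalised to HPRT. Unstimulated cells served as negative control.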

[2] = target: T1, AHR; assay: In vitro assay 1: antagonism in human cell line (transactivation assay, U87 cells prestimulated with kynurenic acid, DRE firefly luciferase reporter); parameters: host or cells: U87 glioblastoma cells, stably transfected with DRE firefly luciferase and renilla reporter constructs; conditions: 150 uM kynurenic acid, 20 hours, read-out: Assay 1: AHR-luc Hum Antagonism IC50
How it was run: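 Antagonism measured after kynurenic acid prestimulation in U87 cells that express AHR endogenously and stably harbor a firefly luciferase gene under DRE control plus a constitutive renilla construct. Positive and negative controls served for normalization.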

[3] = target: T1, AHR; assay: In vitro assay 2: agonism in human cell line (transactivation assay, U87 cells, DRE firefly luciferase reporter); parameters: host or cells: U87 glioblastoma cells, stably transfected with DRE firefly luciferase and renilla reporter constructs; conditions: no kynurenic acid, 20 hours, read-out: Assay 2: AHR-luc Hum Agonism IC50
How it was run: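 Agonist readout: DRE firefly luciferase, with constitutive renilla reporter, in stably transfected U87 cells expressing AHR endogenously. Normalization used positive control (300 uM kynurenic acid) and negative control.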

Row | pIC50 [1] | pIC50 [2] | pIC50 [3] | Structure (SMILES)
1 | 7.78 | 8.07 | < 4.70 | O=C(N[C@H](CO)C1CC1)c1cc(-c2ccc(C(F)(F)F)cc2)nn(-c2cccnc2)c1=O [Example 94, N-[(1S)-1-Cyclopropyl-2-hydroxyethyl]-3-oxo-2-(pyridin-3-yl)-6-[4-(trifluoromethyl)phenyl]-2,3-dihydropyridazine-4-carboxamide]
2 | 7.96 | 8.58 | < 4.70 | CC(C)(O)CNC(=O)c1cc(-c2ccc(C(F)(F)F)cc2)nn(-c2cccnc2)c1=O [Example 115, N-(2-Hydroxy-2-methylpropyl)-3-oxo-2-(pyridin-3-yl)-6-[4-(trifluoromethyl)phenyl]-2,3-dihydropyridazine-4-carboxamide]
3 | 7.92 | 7.80 | < 4.70 | Cn1cc(-n2nc(-c3ccc(C(F)F)cc3)cc(C(=O)N[C@@H]3COC[C@@H]3O)c2=O)cn1 (single isomer, unassigned) [Example 315, 6-[4-(Difluoromethyl)phenyl]-N-[(cis)-4-hydroxytetrahydro-furan-3-yl]-2-(1-methyl-1H-pyrazol-4-yl)-3-oxo-2,3-dihydropyridazine-4-carboxamide]
4 | 8.03 | 7.94 | < 4.70 | Cn1cc(-n2nc(-c3ccc(Cl)cc3)cc(C(=O)N[C@@H]3COC[C@@H]3O)c2=O)cn1 (single isomer, unassigned; enantiomer 1) [Example 44, 6-(4-Chlorophenyl)-N-[(cis)-4-hydroxytetrahydrofuran-3-yl]-2-(1-methyl-1H-pyrazol-4-yl)-3-oxo-2,3-dihydropyridazine-4-carboxamide, Enantiomer 1]
5 | 8.13 | 8.09 | < 4.70 | O=C(NC[C@H](O)C(F)(F)F)c1cc(-c2ccc(Cl)cc2)nn(-c2csc(Cl)c2)c1=O [Example 232, 6-(4-Chlorophenyl)-2-(5-chloro-3-thienyl)-3-oxo-N-[(2S)-3,3,3-trifluoro-2-hydroxypropyl]-2,3-dihydropyridazine-4-carboxamide]
6 | 7.67 | 7.62 | < 4.70 | Cc1ccc(-c2cc(C(=O)N[C@@H](C)CO)c(=O)n(-c3cccnc3)n2)cc1 [Example 152, N-[(2S)-1-Hydroxypropan-2-yl]-6-(4-methylphenyl)-3-oxo-2-(pyridin-3-yl)-2,3-dihydropyridazine-4-carboxamide]
7 | 8.37 | 8.13 | < 4.70 | Cc1ccc(-c2cc(C(=O)NC(CO)C(C)C)c(=O)n(-c3cnn(C)c3)n2)cc1 (stereo not drawn) [Example 1, N-(1-Hydroxy-3-methylbutan-2-yl)-6-(4-methylphenyl)-2-(1-methyl-1H-pyrazol-4-yl)-3-oxo-2,3-dihydropyridazine-4-carboxamide]
8 | 7.72 | 7.53 | < 4.70 | Cn1cc(-n2nc(-c3ccc(C(F)F)cc3)cc(C(=O)NCC(C)(C)O)c2=O)cn1 [Example 62, 6-[4-(Difluoromethyl)phenyl]-N-(2-hydroxy-2-methylpropyl)-2-(1-methyl-1H-pyrazol-4-yl)-3-oxo-2,3-dihydropyridazine-4-carboxamide]
9 | 7.20 | 7.57 | < 4.70 | Cn1cc(-n2nc(-c3ccc(Cl)cc3)cc(C(=O)NCC(O)C(F)(F)F)c2=O)cn1 (single isomer, unassigned; (+)) [Example 20, (+)-6-(4-Chlorophenyl)-2-(1-methyl-1H-pyrazol-4-yl)-3-oxo-N-(3,3,3-trifluoro-2-hydroxypropyl)-2,3-dihydropyridazine-4-carboxamide]
10 | 8.32 | 8.18 | < 4.70 | O=C(NCC(O)C(F)(F)F)c1cc(-c2ccc(Cl)cc2)nn(-c2cccnc2)c1=O (racemic) [Example 78, 6-(4-Chlorophenyl)-3-oxo-2-(pyridin-3-yl)-N-[(2RS)-3,3,3-trifluoro-2-hydroxypropyl]-2,3-dihydropyridazine-4-carboxamide]
11 | 7.95 | 7.94 | < 4.70 | C[C@@H](CO)NC(=O)c1cc(-c2ccc(OC(F)(F)F)cc2)nn(-c2cnn(C)c2)c1=O [Example 53, N-[(2S)-1-Hydroxypropan-2-yl]-2-(1-methyl-1H-pyrazol-4-yl)-3-oxo-6-[4-(trifluoromethoxy)phenyl]-2,3-dihydropyridazine-4-carboxamide]
12 | 7.98 | 8.12 | < 4.70 | O=C(NCC(O)C(F)F)c1cc(-c2ccc(C(F)(F)F)cc2)nn(-c2cccnc2)c1=O (single isomer, unassigned; (-)) [Example 230, (−)-N-(3,3-Difluoro-2-hydroxypropyl)-3-oxo-2-(pyridin-3-yl)-6-[4-(trifluoromethyl)phenyl]-2,3-dihydropyridazine-4-carboxamide]
13 | 7.47 | 7.66 | < 4.70 | C[C@@H](CO)NC(=O)c1cc(-c2ccc(OC(F)F)cc2)nn(-c2cnn(C)c2)c1=O [Example 308, 6-[4-(Difluoromethoxy)phenyl]-N-[(2S)-1-hydroxypropan-2-yl]-2-(1-methyl-1H-pyrazol-4-yl)-3-oxo-2,3-dihydropyridazine-4-carboxamide]
14 | 6.85 | 7.26 | < 4.70 | O=C(N[C@H]1COC[C@H]1O)c1cc(-c2ccc(Cl)cc2)nn(-c2cccnc2)c1=O (single isomer, unassigned) [Example 173, 6-(4-Chlorophenyl)-N-[(cis)-4-hydroxytetrahydrofuran-3-yl]-3-oxo-2-(pyridin-3-yl)-2,3-dihydropyridazine-4-carboxamide]
15 | 8.87 | 8.83 | < 4.70 | Cn1cc(-n2nc(-c3ccc(OC(F)(F)F)cc3)cc(C(=O)N[C@H]3CCCC[C@H]3O)c2=O)cn1 [Example 46, N-[(1S,2R)-2-Hydroxycyclohexyl]-2-(1-methyl-1H-pyrazol-4-yl)-3-oxo-6-[4-(trifluoromethoxy)phenyl]-2,3-dihydropyridazine-4-carboxamide]
16 | 7.84 | 7.53 | < 4.70 | C[C@H](NC(=O)c1cc(-c2ccc(C(F)(F)F)cc2)nn(-c2cn[nH]c2)c1=O)C(C)(C)O [Example 260, N-[(2S)-3-Hydroxy-3-methylbutan-2-yl]-3-oxo-2-(1H-pyrazol-4-yl)-6-[4-(trifluoromethyl)phenyl]-2,3-dihydropyridazine-4-carboxamide]
17 | 8.52 | 6.45 | < 4.70 | Cc1cc(-n2nc(-c3ccc(Cl)cc3)cc(C(=O)N[C@@H](C)CO)c2=O)[nH]n1 [Example 193, 6-(4-Chlorophenyl)-N-[(2S)-1-hydroxypropan-2-yl]-2-(3-methyl-1H-pyrazol-5-yl)-3-oxo-2,3-dihydropyridazine-4-carboxamide]
18 | 7.44 | 7.46 | < 4.70 | C[C@H](CO)NC(=O)c1cc(-c2ccc(C(F)(F)F)cc2)nn(-c2cnn(C)c2)c1=O [Example 38, (−)-N-[(2R)-1-Hydroxypropan-2-yl]-2-(1-methyl-1H-pyrazol-4-yl)-3-oxo-6-[4-(trifluoromethyl)phenyl]-2,3-dihydropyridazine-4-carboxamide]
19 | 7.65 | 7.24 | < 4.70 | O=C(N[C@H]1COC[C@@H]1O)c1cc(-c2ccc(Cl)cc2)nn(-c2cccnc2)c1=O (single isomer, unassigned; enantiomer 2) [Example 170, 6-(4-Chlorophenyl)-N-[(trans)-4-hydroxytetrahydrofuran-3-yl]-3-oxo-2-(pyridin-3-yl)-2,3-dihydropyridazine-4-carboxamide, Enantiomer 2]
20 | 8.04 | 8.04 | < 4.70 | O=C(N[C@H]1CCC[C@@H]1O)c1cc(-c2ccc(C(F)F)cc2)nn(-c2cccnc2)c1=O [Example 139, 6-[4-(Difluoromethyl)phenyl]-N-[(1S,2S)-2-hydroxycyclopentyl]-3-oxo-2-(pyridin-3-yl)-2,3-dihydropyridazine-4-carboxamide]
